≈ marks a conversion by molar mass, not a printed value. Where “and” joins values, the source holds several entries; their conditions need not be identical. Equal values may be shown once. Read-outs that look alike come from different tables or passages of the source.
Key:
M. tb TF274/XDR = assay: microbe, parasite or virus in culture; assay type: cell-based; conditions: Mycobacterium tuberculosis, read-out: M. tb MIC TF274/XDR
M. tb R506/XDR = assay: microbe, parasite or virus in culture; assay type: cell-based; conditions: Mycobacterium tuberculosis, read-out: M. tb MIC R506/XDR
M. tb KZN494/MDR = assay: microbe, parasite or virus in culture; assay type: cell-based; conditions: Mycobacterium tuberculosis, read-out: M. tb MIC KZN494/MDR
M. tb V2475/MDR = assay: microbe, parasite or virus in culture; assay type: cell-based; conditions: Mycobacterium tuberculosis, read-out: M. tb MIC V2475/MDR
M. tb H37Rv strain = conditions: cited from earlier work

COc1cccc2[nH]c(C(=O)NC34CC5CC(CC(C5)C3)C4)cc12 [8b, N-(1-Adamantyl)-4-methoxy-1H-indole-2-carboxamide]
MIC (M. tb TF274/XDR): 0.024 to 0.048 µM (≈ 0.00779 to 0.0156 µg/mL)
MIC (M. tb R506/XDR): 0.024 to 0.048 µM (≈ 0.00779 to 0.0156 µg/mL)
MIC (M. tb KZN494/MDR): 0.048 µM (≈ 0.0156 µg/mL)
MIC (M. tb V2475/MDR): 0.096 µM (≈ 0.0311 µg/mL)

COc1ccc2[nH]c(C(=O)NC34CC5CC(CC(C5)C3)C4)cc2c1 [8d, N-(1-Adamantyl)-5-methoxy-1H-indole-2-carboxamide]
MIC (M. tb TF274/XDR): 0.39 µM (≈ 0.127 µg/mL)
MIC (M. tb R506/XDR): 0.39 µM (≈ 0.127 µg/mL)
MIC (M. tb KZN494/MDR): 0.39 µM (≈ 0.127 µg/mL)
MIC (M. tb V2475/MDR): 0.39 to 0.77 µM (≈ 0.127 to 0.25 µg/mL)

Cc1ccc2[nH]c(C(=O)NC34CC5CC(CC(C5)C3)C4)cc2c1 [8f, N-(1-Adamantyl)-5-methyl-1H-indole-2-carboxamide]
MIC (M. tb TF274/XDR): 0.1 to 0.2 µM (≈ 0.0308 to 0.0617 µg/mL)
MIC (M. tb R506/XDR): 0.1 to 0.2 µM (≈ 0.0308 to 0.0617 µg/mL)
MIC (M. tb KZN494/MDR): 0.2 µM (≈ 0.0617 µg/mL)
MIC (M. tb V2475/MDR): 0.2 µM (≈ 0.0617 µg/mL)

O=C(NC12CC3CC(CC(O)(C3)C1)C2)c1cc2ccc(Br)cc2[nH]1 [8i, 6-bromo-N-(3-hydroxyadamantan-1-yl)-1H-indole-2-carboxamide]
MIC (M. tb TF274/XDR): 2.57 µM (≈ 1 µg/mL)
MIC (M. tb R506/XDR): 2.57 µM (≈ 1 µg/mL)
MIC (M. tb KZN494/MDR): 2.57 to 5.14 µM (≈ 1 to 2 µg/mL)
MIC (M. tb V2475/MDR): 5.14 µM (≈ 2 µg/mL)

O=C(NC12CC3CC(CC(O)(C3)C1)C2)c1cc2c(Cl)cc(Cl)cc2[nH]1 [8j, 4,6-dichloro-N-(3-hydroxyadamantan-1-yl)-1H-indole-2-carboxamide]
MIC (M. tb TF274/XDR): 0.66 µM (≈ 0.25 µg/mL)
MIC (M. tb R506/XDR): 0.66 µM (≈ 0.25 µg/mL)
MIC (M. tb KZN494/MDR): 1.32 µM (≈ 0.501 µg/mL)
MIC (M. tb V2475/MDR): 2.64 µM (≈ 1 µg/mL)

O=C(NC12CC3CC(CC(C3)C1)C2)c1cc2c(F)cc(F)cc2[nH]1 [8k, N-(1-Adamantyl)-4,6-difluoro-1H-indole-2-carboxamide]
MIC (M. tb TF274/XDR): 0.012 µM (≈ 0.00396 µg/mL)
MIC (M. tb R506/XDR): 0.012 µM (≈ 0.00396 µg/mL)
MIC (M. tb KZN494/MDR): 0.024 µM (≈ 0.00793 µg/mL)
MIC (M. tb V2475/MDR): 0.024 µM (≈ 0.00793 µg/mL)

O=C(NC12CC3CC(CC(O)(C3)C1)C2)c1cc2c(F)cc(F)cc2[nH]1 [8l, 4,6-difluoro-N-(3-hydroxyadamantan-1-yl)-1H-indole-2-carboxamide]
MIC (M. tb TF274/XDR): 1.44 µM (≈ 0.499 µg/mL)
MIC (M. tb R506/XDR): 2.89 µM (≈ 1 µg/mL)
MIC (M. tb KZN494/MDR): 2.89 µM (≈ 1 µg/mL)
MIC (M. tb V2475/MDR): 5.77 µM (≈ 2 µg/mL)

O=C(Nc1cc(Cl)cc(Cl)c1)NC12CC3CC(CC(C3)C1)C2 [10a, 1-(1-Adamantyl)-3-(3,5-dichlorophenyl)urea]
MIC (M. tb TF274/XDR): 0.74 µM (≈ 0.251 µg/mL)
MIC (M. tb R506/XDR): 0.74 µM (≈ 0.251 µg/mL)
MIC (M. tb KZN494/MDR): 1.47 µM (≈ 0.499 µg/mL)
MIC (M. tb V2475/MDR): 1.47 to 2.95 µM (≈ 0.499 to 1 µg/mL)

O=C(O)c1cn(C2CC2)c2cc(N3CCNCC3)c(F)cc2c1=O [CPF, Ciprofloxacin, reference compound]
MIC (M. tb TF274/XDR): 6.04 µM (≈ 2 µg/mL)
MIC (M. tb R506/XDR): 6.04 µM (≈ 2 µg/mL)

CC[C@@H](CO)NCCN[C@@H](CC)CO [EMB, ethambutol]
MIC (M. tb H37Rv strain; listed as ethambutol): 4.89 µM (≈ 0.999 µg/mL)
MIC (M. tb H37Rv strain; ref 22): 4.89 [22] μM

NNC(=O)c1ccncc1 [INH, isoniazid]
MIC (M. tb H37Rv strain; ref 22): 0.29 μM and 0.29 [22] μM

O=C(Nc1ccc(F)c(F)c1F)NC1C2CC3CC(C2)CC1C3 (centres unmarked) [compound 4]
MIC (M. tb H37Rv strain; ref 22): 0.096 to 0.19 µM

From article PMC7775894 (Bioorganic chemistry, 2020)
